According to ChEMBL document CHEMBL5244250, “Natural sesquiterpenoid oligomers: A chemical perspective” (Eur J Med Chem, 2020):
In brackets after ≈: the same amount, converted by molar mass.

Key:
KB = experiment: Cytotoxicity against human KB cells assessed as reduction in cell viability; type: functional, cell-based
L1210 = experiment: Cytotoxicity against mouse L1210 cells assessed as reduction in cell viability; type: functional, cell-based
HL-60 = experiment: Cytotoxicity against human HL-60 cells; type: functional, cell-based
RAW264.7 [1] = experiment: Anti-inflammatory activity in LPS induced mouse RAW264.7 cells assessed as inhibition of NO production; type: functional, cell-based
RAW264.7 [2] = experiment: Anti-inflammatory activity in LPS induced mouse RAW264.7 cells assessed as inhibition of NO production by MTT method; type: functional, cell-based
U2OS = experiment: Synergistic cytotoxicity in human U2OS cells assessed as combination index in presence of doxorubicin; type: functional
CCRF S-180 = experiment: Cytotoxicity against mouse CCRF S-180 cells incubated for 48 hrs by MTT based colorimetry assay; type: functional, cell-based; conditions: CCRF S-180, 48 h
MGC-803 = experiment: Cytotoxicity against human MGC-803 cells incubated for 48 hrs by MTT based colorimetry assay; type: functional, cell-based; conditions: MGC-803, 48 h
HepG2 = experiment: Cytotoxicity against human HepG2 cells incubated for 48 hrs by MTT based colorimetry assay; type: functional, cell-based; conditions: HepG2, 48 h
[3] = Cytotoxicity against human 6T-CEM cells; type: functional, cell-based
CCRF-CEM = experiment: Cytotoxicity against human CCRF-CEM cells; type: functional, cell-based
RAW264.7 [4] = experiment: Anti-inflammatory activity in LPS induced mouse RAW264.7 cells assessed as inhibition of NO production pretreated for 1 hr followed by LPS stimulation and measured after 18 hrs by MTT assay; type: functional; conditions: time 19 hrs, read-out: ED50 (the source's name)

Compound `C=C1CCC[C@]2(C)CC[C@@H](C(C)C)[C@H](NC(=O)[C@H]3C[C@H](O)C[C@@H](C(=O)N[C@H]4[C@H](C(C)C)CC[C@@]5(C)CCCC(=C)[C@]45C)N3CCC(=O)OC)[C@@H]12` has an IC50 (KB) of 10.6 mg/L (≈ 15.2 µM).

`C=C1CCC[C@]2(C)CC[C@@H](C(C)C)[C@H](NC(=O)N(CC(=O)O)[C@@H]3[C@H]4C(=C)CCC[C@]4(C)CC[C@H]3C(C)C)[C@@H]12` showed an IC50 (KB) of 2.6 mg/L (≈ 4.94 µM) and an IC50 (L1210) of 2.6 mg/L (≈ 4.94 µM).

In the case of `COC(=O)/C(C)=C1\C(=O)[C@H](O)[C@@]2(C)[C@@H]3C[C@@H]3C3=C[C@@]4(C)[C@@]5(C)[C@@H]6C[C@@H]6[C@@]6(O)COC(=O)/C(C)=C/COC(=O)C(O)CC(=O)OCC7=C(C[C@@H]65)[C@@]4(OC7=O)[C@@H]1[C@]32OO` (stereo partly drawn), the IC50 (HL-60) is reported as 0.03 µM.

In the case of `C=C1C(=O)O[C@@H]2[C@@H]3[C@@H](C[C@@]4(O)[C@]3(O)CC[C@]43C(=O)C[C@H]4C(=C)CC[C@H]5C(=C)C(=O)O[C@@H]5[C@H]43)C(=C)CC[C@@H]12`, the IC50 (RAW264.7 [1]) is reported as 2.41 mg/L (≈ 4.76 µM).

In the case of `C=C1CCC[C@]2(C)CC[C@@H](C(C)C)[C@H](NC(=O)NC(C)(C)[C@@H]3C=C4[C@@H](C)CCC[C@]4(C)CC3)[C@@H]12`, the IC50 (KB) is reported as 2.6 mg/L (≈ 5.55 µM) and the IC50 (L1210) is reported as 2.6 mg/L (≈ 5.55 µM).

Compound `C=C1CC[C@H]2C(=C)CC[C@@H]3[C@H](OC(=O)[C@]3(CC(C)O)C[C@@H]3C(=O)O[C@H]4[C@H]3CCC(=C)[C@@H]3CCC(=C)[C@@]34C)[C@@H]12` (stereo partly drawn) has an IC50 (RAW264.7 [2]) of 2.46 µM.

Work on `C=C1CC[C@H]2C(=C)CC[C@@H]3[C@H](OC(=O)[C@H]3C[C@@]3(CC(C)=O)C(=O)O[C@@H]4C/C(C)=C\CC/C=C(/C)C[C@H]43)[C@@H]12` yielded an IC50 (RAW264.7 [2]) of 4.89 µM.

`COC(=O)/C(C)=C1\C(=O)[C@H](O)[C@@]2(C)[C@@H]3C[C@@H]3[C@@]34CCC5=C6C3=C(C(=O)[C@H](O)[C@@]6(C)[C@@H]3C[C@H]53)[C@](C)(C(C)=O)[C@@H]1[C@@]24O` gave a CI (U2OS) of 1.12.

In the case of `CC(=O)C1=C(Oc2oc3c(c2C)C[C@@]2(C)[C@H](CCC[C@@H]2C)[C@@H]3O)C[C@H]2CCC[C@H](C)[C@@]2(C)C1`, the IC50 (CCRF S-180) is reported as 11.9 µM, the IC50 (MGC-803) is reported as 11.9 µM and the IC50 (HepG2) is reported as 11.9 µM.

Compound `C=C1C(=O)O[C@H]2C[C@H](C)C3=C(C[C@H]12)[C@@]1(C)OC(=O)[C@@H](c2ccc(C)c([C@H](C)CCCOC(C)=O)c2)C[C@H]1[C@H]3OC(C)=O` has an IC50 [3] of 4.4 µM.

With `CC(=O)C1=C(Oc2oc3cc4c(c(C)c3c2C)[C@@H](C)CCC4)C[C@H]2CCC[C@H](C)[C@@]2(C)C1` the IC50 (CCRF S-180) was 11.9 µM, the IC50 (MGC-803) was 11.9 µM and the IC50 (HepG2) was 11.9 µM.

Compound `C=C1C(=O)O[C@H]2C[C@H](C)C3=C(C[C@H]12)[C@@]1(C)C[C@@H]3C[C@@]12C(=O)O[C@@H]1C[C@@]3(C)[C@@H](O)C[C@@H](O)C(=C)[C@@H]3C[C@@H]12` has an IC50 (CCRF-CEM) of 0.14 µM.

Work on `C=C1CC[C@H]2C(=C)CC[C@@H]3[C@H](OC(=O)[C@H]3C[C@@]3(CC(C)=O)C(=O)O[C@@H]4[C@H]5C(C)=CCCC5(C)CC[C@H]43)[C@@H]12` (stereo partly drawn) yielded an IC50 (RAW264.7 [2]) of 7.24 µM.

`C[C@@H]1CC(=O)c2c3c(nc4c2[C@@]1(C)[C@H]1[C@@H](C4=O)C1(C)C)C[C@]1(C)C(=CCC[C@H]1C)C3=O` showed an EC50 (RAW264.7 [4]) of 5.73 µM.

For `C=C(C)[C@@H]1c2oc3c(c2C(=O)C2=CCC[C@@H](C)[C@@]21C)C(=O)C[C@]1(C)C3=CCC[C@H]1C`, the EC50 (RAW264.7 [4]) was 23.6 µM.

`C=C1C(=O)O[C@H]2C[C@H](C)C3=C(C[C@H]12)[C@]1(C)C[C@H]3C[C@@]12C(=O)O[C@@H]1C[C@H](C)C(CC[C@H](C)O)=CC[C@@H]12` showed an IC50 (HL-60) of 4.9 µM.

For `C=C1C(=O)O[C@H]2C[C@H](C)[C@@]34C[C@@H](C[C@@]35C(=O)O[C@@H]3C[C@@]6(C)[C@@H](O)C[C@@H](O)C(=C)[C@@H]6C[C@@H]35)C(C)=C4C[C@H]12`, the IC50 (CCRF-CEM) was 0.14 µM.
